# Key:
# [1] = Topical podophyllotoxin on vaginal peaks in patients with post-hysterectomic pain; type: in vivo, human
# Experimental: In accordance with the invention podophyllotoxin can also be used for intense tenderness to touch and palpation in the upper vaginal corners with post-hysterectomic pain, sometimes also with bleed in. After the rinse with acetum the vaginal corners are treated with podophyllotoxin, and vaginal ointment can be applied on the treated areas if necessary. The treatment can be repeated at least three times if necessary, at intervals of either one day or one month.
# At the end of about three years the patient returned to the gynecologic outpatient clinic and complained about a strong continual pain in the lower part of the abdomen and a pushing feeling in the rectum. […] The vaginal peaks were treated locally with podophyllotoxin three times at two days' intervals. Especially the right corner was very tender to palpation. After the third treatment there was no more pain.
# (§1) The patient hade undergone hysterectomy, suffered from pain, a small muscular tumour and adhesions after endometriosis. The patient had suffered from incontinence for about a year. There had been no distinct inflammations. […] They were pencilled. Nevertheless, after about six months the patient returned to the clinic because of pain in the lower abdomen, the back and a sting in the urinary bladder. The sore vaginal peaks were pencilled with podophyllotoxin once more.
# Post-hysterectomic pain was examined in 26 patients. The vagina was first washed with a 3% acetum solution and then the vaginal peaks were pencilled with podophyllotoxin. A vaginal ointment was used occasionally on the pencilled areas. The treatment was repeated 1 to 3 times at about one month's intervals.
# [2] = Topical podophyllotoxin on sore vestibular (Bartholin's) glands in vulvodynia patients; type: in vivo, human
# Excerpt: In the treatment, the vagina is first washed with a 3% acetum solution. The vulva, especially Batrholin's glands are examined by means of colposcopy. A second object is a slightly uneven, netlike area located obliquely behind, at the sides of the outer mouth of the urethra. Sometimes small hyperemetic cavities, small vestibular glands are found in the vulvar region, which are not sore in a healthy person. In vulvodynia they are typically very tender to touch and red, ligulate and with embossed edges. In vulvodynia Bartholin's gland orifices are sometimes closed. These points often start bleeding at palpation.
# In accordance with the invention, the sore glands are pencilled with podophyllotoxin. Any commonly used vaginal ointment is applied on the pencilled area. The treatment is repeated twice if necessary at an interval of about one month. The treatment is usually not effective at once, however, in the course of typically two weeks there is no more pain.
# The gland orifices were pencilled with a 5% podophyllotoxin solution. The pain during intercourse disappeared at the end of a couple of weeks. After about two years the pain recurred. Podophyllotoxin was applied to the gland orifices anew. At the end of two months the lefthand, still tender gland orifice was pencilled once more.
# The patient had undergone hysterectomy because of prolapse and extended cervix. However, the prolapse recurred (enterocele), and was resectioned from below. After the surgery the patient suffered from vaginal pain, which was stronger on the left side. There was no inflammation, the pain persisted. A gynecologist made repeated examinations, found nothing wrong and consulted a neurologist, who made the diagnosis inexplicable postoperative pain. […] Podophyllotoxin was applied twice at one month's interval and once more the following day.
# as §1
# A total of 151 patients were treated over a period of two years, and among these 75% had typical vulvodynia symptoms and the remainder atypical other symptoms, such as disorders of the urinary tracts, vaginal dryness, itching and recurrent candidosis. However, intense tenderness to touch of the vestibular glands was typical for all of the patients.
# All of the patients were treated in the same way: first the vagina was washed with a 3% solution of acetum, the sore glands were treated with podophyllotoxin and vaginal ointment was applied on this. 46 patients were treated only once and 6 patients were treated 10 times, the patients were treated 2.6 times on the average.
compound,measurement,setting,value
COc1cc([C@@H]2c3cc4c(cc3[C@H](O)[C@H]3COC(=O)[C@H]23)OCO4)cc(OC)c1OC [podophyllotoxin],pain after treatment of vaginal peaks,"[1]; Example 2, same patient about three years later, vaginal peaks treated three times at two days' intervals, after the third treatment",no more pain
same,incontinence after treatment of vaginal peaks,"[1]; Example 3, control one month after last pencilling of vaginal peaks",disappeared
same,patient's state at control after treatment of vaginal peaks,"[1]; Example 3, sore vaginal peaks pencilled again about six months later, control one month later",completely recovered
same,number of patients remaining free of symptoms during the control period,"[1]; Example 5, 26 patients, vaginal peaks pencilled 1 to 3 times at about one month's intervals, maximum control period 9 months",17 patients
same,results of treatment (general statement),"[1]; upper vaginal corners treated, repeated at least three times if necessary",extremely good
same,pain during intercourse after treatment,"[2]; Example 1, one patient, Bartholin's gland orifices pencilled with 5% podophyllotoxin solution, at the end of a couple of weeks",disappeared
same,pain after repeat treatment of recurrence,"[2]; Example 1, recurrence after about two years, gland orifices pencilled anew, left orifice once more after two months, in the course of a couple of weeks",disappeared completely
same,symptoms after treatment,"[2]; Example 2, one patient, postoperative vaginal pain, left Bartholin's gland and right side of urethra, applied twice at one month's interval and once more the following day",free of symptoms
same,pain in the glands after treatment,"[2]; Example 3, one patient, sore glands in the introitus pencilled once, after one month",no pain in the glands
same,number of patients free of symptoms,"[2]; Example 4, 151 patients treated, 2.6 times on average, about two weeks after the treatment",about one hundred
same,number of patients considered to have probably recovered,"[2]; Example 4, 151 patients treated, follow-up maximum more than 5 years",40 patients
same,immediate effect on pain,"[2]; directly after treatment, before relief in the course of a couple of weeks",increases the pain
same,pain after treatment (general statement),"[2]; sore glands pencilled, repeated twice if necessary at about one month interval, in the course of typically two weeks",no more pain
same,pain at small red cavities of the front part of the vulva,[2]; vestibulitis type condition,relieved

# Source: patent publication US6362222B1, “Analgesic use of podophyllotoxin for treating pain conditions in female genital organs” (priority 1998, dated 2002)
